Test results taken from publication PMC5745756, “N,N-disubstituted azines attenuate LPS-mediated neuroinflammation in microglia and neuronal apoptosis via inhibiting MAPK signaling pathways” (BMC Neuroscience, 2017).

Columns and labels:
Format in all cases: cell-based, murine
[1] = system: p38; experiment: Western blot of LPS-induced p38 phosphorylation in BV-2 cells; conditions: 5–20 µM; LPS 30 min, similar pattern at 24 h
Method: BV-2 cells were seeded in a 6-well plate at a density of 6 × 10^5 cells/well and exposed to LPS (100 ng/mL) in the presence or absence of compound 3 for required time. After treatment, cells were collected and lysed in cell lysis buffer (50 mM Tris–HCl, pH 8.0, 0.1% SDS, 150 mM NaCl, 1% NP-40, 0.02% sodium azide, 0.5% sodium deoxycholate, 100 µg/mL PMSF, and […]) for 24 h at 4 °C. The protein content was measured using a Bradford assay. Equal amounts of protein (30 µg) were separated using SDS-PAGE and transferred to a nitrocellulose membrane. The membrane was blocked for 1 h with 5% skim milk in tris-buffered saline with Tween-20 (TBST) and then incubated for 12 h with primary antibodies against α-tubulin (Sigma-Aldrich Cat. no: T5168), iNOS (Bioscience Cat. no: 610333, COX-2 (Santa Cruz Cat. no: sc-1745), ERK (Cell Signaling Cat. no: 9107s), pERK (Cell Signaling Cat. no: 5013s), JNK (Cell Signaling Cat. no: 9252s), pJNK (Cell Signaling Cat. no: 4671s), p38 (Cell Signaling Cat. no: 8690s), and pP38 (Cell Signaling Cat. no: 9211s), followed by incubation for 1 h with horseradish peroxidase-conjugated secondary antibodies (Cell Signaling) at 15 °C. […]
Fig. 3 Effect of compound 3 on MAPK pathway in LPS-induced BV-2 cells. […] The phosphorylation of p38, JNK, and ERK was measured by western blotting (a–c). […]

[2] = system: N2a cells; experiment: TNF-α induced N2a cytotoxicity, direct treatment
Method: (§1) N2a cells were used as a representative neuronal cell line for the examination of apoptotic neuron viability using direct treatment of compound 3 with TNF-α activation as well as conditioned media (CM) from LPS-stimulated BV-2 cells treated with compound 3 [28]. This assay was performed following the methods described in our previous study, with slight modifications. To measure neuron viability, BV-2 cells were first seeded and treated with 100 ng/mL LPS in the presence or absence of compound 3. After 24 h, the CM was collected and transferred to N2a cells for a further 24 h. The cell viability of N2a cells was measured using the MTT assay. Well differentiated neuronal cells were used for the experimental purpose as shown in Additional file 1: Fig. S1.
Here, we have investigated whether the compound 3 has any direct protective effects on microglia and neurons against LPS and TNF-α induced direct toxicity. As the aim of this study is to check the effectiveness of compound 3 against neurodegenerative conditions, here we checked the effect of this compound to protect microglial cells against β-amyloid induced cytotoxicity as shown in Fig. 5a. […] LPS treatment was unable to induce cellular toxicity to N2a cells (Fig. 5b). […] Compound 3 mediated neuroprotection in N2a cells is due to the inhibition of proinflammatory cytokines produced by LPS activated microglia. […]

[3] = system: TNF-α; experiment: ELISA of TNF-α in LPS-activated BV-2 culture medium; conditions: 10 and 20 µM, LPS 24 h
Method: To measure TNF-α, IL-6, and PGE2, BV-2 cells were seeded in a 24-well plate at a density of 3 × 10^5 cells/well. The cells were treated with LPS (100 ng/mL) in the presence or absence of compound 3 for 24 h, and the media was collected and centrifuged. IL-6, TNF-α, and PGE2 produced in microglial culture supernatants […] were measured by competitive enzyme immunoassay kits (R&D systems, Minneapolis, MN, USA) in accordance with the manufacturer’s protocol.
Fig. 2 Effect of compound 3 on LPS-induced iNOS and COX2 expression in BV-2 cells. BV-2 cells were pretreated with various concentrations (5, 10, and 20 µM) of compound 3 for 30 min and activated with 100 ng/mL LPS. After 6 h, the cells were collected for analysis of iNOS and COX-2 expression using western blot analysis (a–c). Similarly, LPS activation was made for 24 h as chronic BV2 activation and the iNOS and COX-2 expression was measured (d). α-Tubulin was used as the loading control. The densitometric analysis of bands was performed as described in the methods section. After 24 h, the culture medium was subsequently collected to measure the quantity of PGE2 (e), IL-6 (f), and TNF-α (g) using ELISA analysis. […]

[4] = system: COX-2; experiment: Western blot of LPS-induced COX-2 expression in BV-2 cells
Method: BV-2 cells were seeded in a 6-well plate at a density of 6 × 10^5 cells/well and exposed to LPS (100 ng/mL) in the presence or absence of compound 3 for required time. After treatment, cells were collected and lysed in cell lysis buffer (50 mM Tris–HCl, pH 8.0, 0.1% SDS, 150 mM NaCl, 1% NP-40, 0.02% sodium azide, 0.5% sodium deoxycholate, 100 µg/mL PMSF, and […]) for 24 h at 4 °C. The protein content was measured using a Bradford assay. Equal amounts of protein (30 µg) were separated using SDS-PAGE and transferred to a nitrocellulose membrane. […]
Fig. 2 Effect of compound 3 on LPS-induced iNOS and COX2 expression in BV-2 cells. […] Similarly, LPS activation was made for 24 h as chronic BV2 activation and the iNOS and COX-2 expression was measured (d). α-Tubulin was used as the loading control. […] After 24 h, the culture medium was subsequently collected to measure the quantity of PGE2 (e), IL-6 (f), and TNF-α (g) using ELISA analysis. […]

[5] = system: N2a cells; experiment: Neuronal cell viability (MTT) of N2a cells given conditioned media from LPS-stimulated BV-2 cells; conditions: Mus musculus, MTT after 24 h, read-out: N2a cell viability, % of the only LPS treated control value
Method: as §1
Fig. 4 Neuroprotection of compound 3 in LPS-activated microglia in N2a cells. BV-2 microglial cells were pretreated with 5, 10, and 20 µM compound 3 for 30 min and stimulated with 100 ng/mL of LPS for 24 h. After 24 h of LPS treatment, the conditioned media (CM) were collected and transferred to N2a cells. After 24 h, MTT assay was done in the same CM treated N2a cells (a) and FACS analysis (b–h). An annexin V/PI apoptosis kit was used to quantify the percentage of cells undergoing apoptosis and necrosis (x-axis, annexin V; y-axis, PI) by using FACS analysis. CM-LPS treatment alone induced apoptosis and necrosis in N2a cells (g, h). […]

COc1cc(/C=C/C=N/N=C/C=C/c2ccc(O)c(OC)c2)ccc1O [Compound 3, 4,4′-(1E,1′E,3E,3′E)-3,3′-(hydrazine-1,2-diylidene)bis(prop-1-ene-1-yl-3-ylidene)bis(2-methoxyphenol)]
LPS-induced phosphorylation of p38 [1]: significantly inhibited
Cell viability of N2a cells against TNF-α mediated toxicity [2]: increased cell viability
TNF-α secretion [3]: significant reduction
Expression of COX-2 ([4]; 5, 10 and 20 µM, 30 min pretreatment, LPS 100 ng/mL 6 h): significantly reduced
LPS induced COX-2 activation, chronic ([4]; 24 h chronic LPS activation): dramatically rescued
viability at 10 µM ([5]; CM of BV-2 cells treated with 10 µM compound + LPS): 199%
viability at 20 µM ([5]; CM of BV-2 cells treated with 20 µM compound + LPS): 398%
